Experimental data from article PMC11110727, “Exploiting thiol-functionalized benzosiloxaboroles for achieving diverse substitution patterns – synthesis, characterization and biological evaluation of promising antibacterial agents” (RSC Medicinal Chemistry, 2024).
Values after ≈ are worked out from the molar mass of the structure shown. Where two headings read alike, the source gives them in different places.

Tests used:
S. aureus ATCC 6538P = test: Antibacterial activity: MIC/MBC determination and disc-diffusion; assay type: cell-based, Staphylococcus aureus; conditions: for diameter of inhibition zone: disc-diffusion, — = zone not observed; for MBC / MIC: Staphylococcus aureus, ATCC6538P
Summary of the method: (§1)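 Compounds in DMSO were screened by disc diffusion and MIC determination (EUCAST, CLSI), with bactericidal and fungicidal concentrations obtained per CLSI. Fluconazole served as the antifungal reference and linezolid as the Gram-positive reference.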

[1] = test system: S. aureus ATCC 43300 MRSA; test: as above; assay type: cell-based; conditions: Staphylococcus aureus; for MBC: read-out: MBC (first MBC where Eagle effect)
Summary of the method: as §1

A. baumannii ATCC 19606 = test: Antibacterial activity: MIC/MBC, MIC with PAβN, disc-diffusion; assay type: cell-based, Acinetobacter baumannii
Summary of the method: (§2)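 Read-outs are disc-diffusion zones, broth-microdilution MICs and bactericidal concentrations (MBC), following EUCAST and CLSI guidance. The efflux contribution was probed by rerunning MICs with 20 μg mL^−1 PAβN in MgSO4-supplemented (1 mM) Mueller–Hinton II broth, a ≥4-fold decrease being significant.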

P. aeruginosa ATCC 27853 = test: as above; assay type: cell-based; conditions: Pseudomonas aeruginosa, ATCC27853
Summary of the method: as §2

[2] = test system: S. maltophilia ATCC 12714; test: as above; assay type: cell-based, Stenotrophomonas maltophilia; conditions: for MIC: Stenotrophomonas maltophilia, ATCC12714
Summary of the method: as §2

[3] = test system: S. maltophilia ATCC 13637; test: as above; assay type: cell-based, Stenotrophomonas maltophilia
Summary of the method: as §2

[4] = test system: B. bronchiseptica ATCC 4617; test: Antibacterial activity: MIC/MBC, disc-diffusion; assay type: cell-based, Bordetella bronchiseptica
Summary of the method: as §2

C. albicans ATCC 90028 = test: Antifungal activity: MIC/MFC, disc-diffusion; assay type: cell-based, Candida albicans; conditions: for MIC: Candida albicans, ATCC90028
Summary of the method: (§3)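 MIC values come from CLSI/EUCAST-based dilution testing, with cidal concentrations (MBC or MFC) assessed by CLSI procedures and zones by disc diffusion. Compounds were prepared in DMSO.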

S. cerevisiae ATCC 9763 = test: Antifungal activity: MIC/MFC, disc-diffusion; assay type: cell-based, Saccharomyces cerevisiae
Summary of the method: as §3

[5] = S. aureus ATCC 6538P, read-out: MBC (first MBC where Eagle effect)
[6] = S. aureus ATCC 6538P, read-out: MIC
[7] = S. aureus ATCC 43300 MRSA, read-out: MIC
[8] = Acinetobacter baumannii, ATCC19606, A. baumannii ATCC 19606, read-out: MIC
[9] = P. aeruginosa ATCC 27853, read-out: MIC
[10] = S. maltophilia ATCC 12714, read-out: MIC
[11] = Stenotrophomonas maltophilia, ATCC13637, S. maltophilia ATCC 13637, read-out: MIC
[12] = Bordetella bronchiseptica, ATCC4617, B. bronchiseptica ATCC 4617, read-out: MIC
[13] = Saccharomyces cerevisiae, ATCC9763, read-out: MIC

Compound	diameter of inhibition zone (S. aureus ATCC 6538P; S. aureus ATCC 6538P) [mm]	MBC (S. aureus ATCC 6538P; [5]) [mg/L]	MIC (S. aureus ATCC 6538P; [6]) [mg/L]	MBC ([1]; S. aureus ATCC 43300 MRSA) [mg/L]	MIC [1, 7] [mg/L]	MIC (A. baumannii ATCC 19606; [8]) [mg/L]	MIC (P. aeruginosa ATCC 27853; [9]) [mg/L]	MIC [2, 10] [mg/L]	MIC [3, 11] [mg/L]	MIC [4, 12] [mg/L]	MIC (C. albicans ATCC 90028; read-out: MIC) [mg/L]	MIC (S. cerevisiae ATCC 9763; [13]) [mg/L]	also measured
C[Si]1(C)OB(O)c2ccc(SC3CC(=O)N(c4ccc(Br)c(C(F)(F)F)c4)C3=O)c(F)c21 (stereo not drawn) [Compound 17, 1-(4-Bromo-3-(trifluoromethyl)phenyl)-3-((7-fluoro-3-hydroxy-1,1-dimethyl-1,3-dihydrobenzo[c][1,2,5]oxasilaborol-6-yl)thio)pyrrolidine-2,5-dione]	19	100 (≈ 182 µM)	25 (≈ 45.6 µM)	100 (≈ 182 µM)	25 (≈ 45.6 µM)	> 200	> 200	> 200	> 200	200 (≈ 365 µM)	100 (≈ 182 µM)	6.25 (≈ 11.4 µM)	diameter of inhibition zone (C. albicans ATCC 90028; C. albicans ATCC 90028, (-) = zone not observed, paper discs 9 mm): 20 mm; diameter of inhibition zone (S. cerevisiae ATCC 9763; S. cerevisiae ATCC 9763, (-) = zone not observed, paper discs 9 mm): 33 mm; MFC (S. cerevisiae ATCC 9763; Saccharomyces cerevisiae, ATCC9763, S. cerevisiae ATCC 9763): 100 mg/L (≈ 182 µM)
C[Si]1(C)OB(O)c2cc(F)c(SCCC(N)=O)c(F)c21 [Compound 7, 3-((5,7-Difluoro-3-hydroxy-1,1-dimethyl-1,3-dihydrobenzo[c][1,2,5]oxasilaborol-6-yl)thio)propanamide]	24	–	50 (≈ 158 µM)	–	100 (≈ 315 µM)	> 400	> 400	> 400	> 400	> 400	> 400	> 400	–
C[Si]1(C)OB(O)c2cc(F)c(SC3CC(=O)NC3=O)c(F)c21 (stereo not drawn) [Compound 12, 3-((5,7-Difluoro-3-hydroxy-1,1-dimethyl-1,3-dihydrobenzo[c][1,2,5]oxasilaborol-6-yl)thio)pyrrolidine-2,5-dione]	20	100 (≈ 291 µM)	6.25 (≈ 18.2 µM)	200 (≈ 583 µM)	12.5 (≈ 36.4 µM)	100 (≈ 291 µM)	> 400	200 (≈ 583 µM)	50 (≈ 146 µM)	12.5 (≈ 36.4 µM)	> 400	> 400	diameter of inhibition zone (A. baumannii ATCC 19606; A. baumannii ATCC 19606, (-) = zone not observed, paper discs 9 mm): 18 mm; -fold reduction of MIC in the presence of PAβN (A. baumannii ATCC 19606; A. baumannii ATCC 19606, PAβN 20 μg mL^−1, MHB + 1 mM MgSO4): 2 -fold; MBC (A. baumannii ATCC 19606; Acinetobacter baumannii, ATCC19606, A. baumannii ATCC 19606): 200 mg/L (≈ 583 µM); diameter of inhibition zone ([2]; S. maltophilia ATCC 12714, (-) = zone not observed, paper discs 9 mm): 13 mm; -fold reduction of MIC in the presence of PAβN ([2]; S. maltophilia ATCC 12714, PAβN 20 μg mL^−1, MHB + 1 mM MgSO4): 2 -fold; diameter of inhibition zone ([3]; S. maltophilia ATCC 13637, (-) = zone not observed, paper discs 9 mm): 13 mm; MBC ([3]; Stenotrophomonas maltophilia, ATCC13637, S. maltophilia ATCC 13637): 100 mg/L (≈ 291 µM); diameter of inhibition zone ([4]; B. bronchiseptica ATCC 4617, (-) = zone not observed, paper discs 9 mm): 25 mm; MBC ([4]; Bordetella bronchiseptica, ATCC4617, B. bronchiseptica ATCC 4617): 50 mg/L (≈ 146 µM)
C[Si]1(C)OB(O)c2ccc(SCCC(=O)OCCCCCC[n+]3ccccc3)c(F)c21 [Compound 19, 1-(6-((3-((7-Fluoro-3-hydroxy-1,1-dimethyl-1,3-dihydrobenzo[c][1,2,5]oxasilaborol-6-yl)thio)propanoyl)oxy)hexyl)pyridin-1-ium trifluoromethanesulfonate]	20	100	25	100	25	> 400	> 400	> 400	> 400	> 400	> 400	> 400	–
Cc1cc(NC(=O)CCSc2c(F)cc3c(c2F)[Si](C)(C)OB3O)no1 [Compound 11, 3-((5,7-Difluoro-3-hydroxy-1,1-dimethyl-1,3-dihydrobenzo[c][1,2,5]oxasilaborol-6-yl)thio)-N-(5-methylisoxazol-3-yl)propanamide]	21	400 (≈ 1000 µM)	25 (≈ 62.8 µM)	400 (≈ 1000 µM)	50 (≈ 126 µM)	> 400	> 400	> 400	> 400	> 400	> 400	> 400	–
C[Si]1(C)OB(O)c2ccc(SC(=O)c3ccc(C(F)(F)F)cc3)c(F)c21 [Compound 25, S-(7-Fluoro-3-hydroxy-1,1-dimethyl-1,3-dihydrobenzo[c][1,2,5]oxasilaborol-6-yl) 4-(trifluoromethyl)benzothioate]	11	25 (≈ 62.5 µM)	12.5 (≈ 31.2 µM)	25 (≈ 62.5 µM)	12.5 (≈ 31.2 µM)	> 50	> 50	> 50	> 50	> 50	50 (≈ 125 µM)	25 (≈ 62.5 µM)	–
CCOP(=O)(OCC)Sc1c(F)cc2c(c1F)[Si](C)(C)OB2O [Compound 24, S-(5,7-Difluoro-3-hydroxy-1,1-dimethyl-1,3-dihydrobenzo[c][1,2,5]oxasilaborol-6-yl) O,O-diethyl phosphorothioate]	32	–	–	–	–	–	–	–	–	–	–	–	MIC (S. aureus ATCC 6538P): 6.25 mg/L (≈ 16.4 µM); MBC (S. aureus ATCC 6538P; read-out: MBC (first MBC where Eagle effect)): 12.5 mg/L (≈ 32.7 µM); MBC (S. aureus ATCC 6538P; read-out: second MBC (Eagle effect)): > 400 mg/L; MIC [1]: 12.5 mg/L (≈ 32.7 µM); MBC [1]: > 400 mg/L; MIC (A. baumannii ATCC 19606; Acinetobacter baumannii, ATCC19606): > 400 mg/L; MIC (P. aeruginosa ATCC 27853): > 400 mg/L; MIC [2]: > 400 mg/L; MIC ([3]; Stenotrophomonas maltophilia, ATCC13637): > 400 mg/L; MIC ([4]; Bordetella bronchiseptica, ATCC4617): > 400 mg/L; MIC (C. albicans ATCC 90028): > 400 mg/L; MIC (S. cerevisiae ATCC 9763; Saccharomyces cerevisiae, ATCC9763): > 400 mg/L
C[Si]1(C)OB(O)c2cc(F)c(S(=O)(=O)Nc3ccc(F)cc3)c(F)c21 [Compound 28, 5,7-Difluoro-N-(4-fluorophenyl)-3-hydroxy-1,1-dimethyl-1,3-dihydrobenzo[c][1,2,5]oxasilaborole-6-sulfonamide]	22	–	50 (≈ 129 µM)	–	100 (≈ 258 µM)	> 400	> 400	> 400	> 400	> 400	> 400	> 400	–
C[Si]1(C)OB(O)c2cc(F)c(SCCC(=O)OCCCCCC[n+]3ccccc3)c(F)c21 [Compound 18, 1-(6-((3-((5,7-difluoro-3-hydroxy-1,1-dimethyl-1,3-dihydrobenzo[c][1,2,5]oxasilaborol-6-yl)thio)propanoyl)oxy)hexyl)pyridin-1-ium trifluoromethanesulfonate]	19	100	25	200	50	> 400	> 400	> 400	> 400	> 400	> 400	> 400	–
CC(=O)CCSc1c(F)cc2c(c1F)[Si](C)(C)OB2O [Compound 3, 4-((5,7-Difluoro-3-hydroxy-1,1-dimethyl-1,3-dihydrobenzo[c][1,2,5]oxasilaborol-6-yl)thio)butan-2-one]	23	100 (≈ 316 µM)	50 (≈ 158 µM)	200 (≈ 632 µM)	50 (≈ 158 µM)	> 400	> 400	200 (≈ 632 µM)	400 (≈ 1260 µM)	50 (≈ 158 µM)	> 400	400 (≈ 1260 µM)	–
C[Si]1(C)OB(O)c2ccc(S)c(F)c21 [Compound 2e, 7-Fluoro-6-mercapto-1,1-dimethylbenzo[c][1,2,5]oxasilaborol-3(1H)-ol]	20	25 (≈ 110 µM)	12.5 (≈ 54.8 µM)	25 (≈ 110 µM)	12.5 (≈ 54.8 µM)	> 100	> 100	> 100	> 100	> 100	> 100	> 100	–
C[Si]1(C)OB(O)c2cc(F)c(SCCC(=O)Nc3ncccn3)c(F)c21 [Compound 9, 3-((5,7-Difluoro-3-hydroxy-1,1-dimethyl-1,3-dihydrobenzo[c][1,2,5]oxasilaborol-6-yl)thio)-N-(pyrimidin-2-yl)propanamide]	17	400 (≈ 1010 µM)	25 (≈ 63.2 µM)	400 (≈ 1010 µM)	50 (≈ 126 µM)	> 400	> 400	> 400	> 400	> 400	> 400	> 400	–
